Data from publication PMC7863742, “Sensitive Fluorescence Assay for the Detection of Alkaline Phosphatase Based on a Cu^2+-Thiamine System” (Sensors (Basel, Switzerland), 2021).

Biological target: Alkaline phosphatase (ALP)
Assay: Cu2+-thiamine fluorescence assay of ALP hydrolysis of ascorbic acid 2-phosphate
Type: biochemical

[O]=[V]([OH])([OH])[OH] [Na3VO4]
IC50: 262 µM
